Measurements taken from patent US20250101041A1, “POSITIVE ALLOSTERIC MODULATORS OF THE MUSCARINIC ACETYLCHOLINE RECEPTOR M4” (Vanderbilt University, priority 2022, published 2025).

Target: T1, human mAChR M4 (Homo sapiens, UniProt P08173)
T1 construct: expressed in transfected cells; host or cells: CHO-K1 (American Type Culture Collection), stably expressing hM4 and Gqi5
T1 sequence (P08173 1-479): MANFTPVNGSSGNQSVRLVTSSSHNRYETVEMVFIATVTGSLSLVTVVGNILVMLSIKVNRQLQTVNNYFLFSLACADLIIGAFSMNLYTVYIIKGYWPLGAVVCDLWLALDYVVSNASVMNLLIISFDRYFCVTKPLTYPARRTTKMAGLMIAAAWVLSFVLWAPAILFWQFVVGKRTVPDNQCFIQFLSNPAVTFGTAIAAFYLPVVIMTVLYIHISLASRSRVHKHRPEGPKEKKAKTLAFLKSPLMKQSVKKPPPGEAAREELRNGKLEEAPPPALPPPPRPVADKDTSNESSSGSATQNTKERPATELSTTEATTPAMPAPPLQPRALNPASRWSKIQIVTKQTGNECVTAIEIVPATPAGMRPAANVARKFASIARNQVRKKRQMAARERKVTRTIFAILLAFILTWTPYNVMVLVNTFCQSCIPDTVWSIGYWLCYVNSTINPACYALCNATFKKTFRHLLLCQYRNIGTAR
Experiment: mAChR M4 cell-based functional assay: calcium mobilization (Fluo-4, FDSS), potentiation of EC20 acetylcholine response in hM4-Gqi5 CHO-K1 cells
Conditions: human M4; for Emax at 30 µM: CHO-K1, % ACh maximum at 30 μM; for EC50: potentiation of EC20 acetylcholine response, calcium mobilization
Method in brief: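 Readout is the fluorescence-ratio rise at 1 Hz on FDSS, with PAM activity taken as concentration-dependent enhancement of the EC20 acetylcholine response, fitted four-parameter for EC50/Emax. hM4-Gqi5 CHO-K1 cells carried Fluo-4 AM dye; test compounds (11 points, 1:3) preceded EC20 acetylcholine additions at 144 s and 230 s.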

| SMILES | Emax at 30 µM | EC50 |
| --- | --- | --- |
| Cc1ccc(-c2cnc3c(c2)CN(c2nn4c(=O)cc(C(F)F)nc4c(C)c2C)CC3)c(C)c1 [Compound 1-164, 2-(difluoromethyl)-7-(3-(2,4-dimethylphenyl)-7,8-dihydro-1,6-naphthyridin-6(5H)-yl)-8,9-dimethyl-4H-pyrimido[1,2-b]pyridazin-4-one] | 69% | 640 nM |
| Cc1cc(-c2cnc3c(c2)CN(c2nn4c(=O)ccnc4cc2C)CC3)n(C)n1 [Compound 1-390, 7-(3-(1,3-dimethyl-1H-pyrazol-5-yl)-7,8-dihydro-1,6-naphthyridin-6(5H)-yl)-8-methyl-4H-pyrimido[1,2-b]pyridazin-4-one] | 98% | 486 nM |
| Cc1cc2nccc(=O)n2nc1N1CCc2ncc(Nc3cc(F)cc(C#N)c3)cc2C1 [Compound 2-104, 3-fluoro-5-((6-(8-methyl-4-oxo-4H-pyrimido[1,2-b]pyridazin-7-yl)-5,6,7,8-tetrahydro-1,6-naphthyridin-3-yl)amino)benzonitrile] | 85% | 46 nM |
| Cc1cc2nccc(=O)n2nc1N1CCc2ncc(N3CCOC(c4cccc(F)c4)C3)cc2C1 (stereo not drawn) [Compound 2-61, 7-(3-(2-(3-fluorophenyl)morpholino)-7,8-dihydro-1,6-naphthyridin-6(5H)-yl)-8-methyl-4H-pyrimido[1,2-b]pyridazin-4-one] | 84% | 518 nM |
| Cc1cc2nccc(=O)n2nc1N1CCc2ncc(-c3ccnc(C4CC4)c3)cc2C1 [Compound 1-54, 7-(3-(2-cyclopropylpyridin-4-yl)-7,8-dihydro-1,6-naphthyridin-6(5H)-yl)-8-methyl-4H-pyrimido[1,2-b]pyridazin-4-one] | 76% | 479 nM |
| Cc1cc(=O)n2nc(N3CCc4ncc(-c5ccccc5C)cc4C3)c(C)c(C)c2n1 [Compound 1-137, 2,8,9-trimethyl-7-(3-(o-tolyl)-7,8-dihydro-1,6-naphthyridin-6(5H)-yl)-4H-pyrimido[1,2-b]pyridazin-4-one] | 109% | 1730 nM |
| COc1cc(Cl)cc(Nc2cnc3c(c2)CN(c2nn4c(=O)ccnc4cc2C)CC3)c1 [Compound 2-82, 7-(3-((3-chloro-5-methoxyphenyl)amino)-7,8-dihydro-1,6-naphthyridin-6(5H)-yl)-8-methyl-4H-pyrimido[1,2-b]pyridazin-4-one] | 79% | 489 nM |
| Cc1cc2nccc(=O)n2nc1N1CCc2ncc(-c3c(C)ccnc3C)cc2C1 [Compound 1-401, 7-(3-(2,4-dimethylpyridin-3-yl)-7,8-dihydro-1,6-naphthyridin-6(5H)-yl)-8-methyl-4H-pyrimido [1,2-b]pyridazin-4-one] | 39% |  |
| Cc1c(N2CCc3ncc(-c4cccnc4)cc3C2)nn2c(=O)ccnc2c1C [Compound 1-148, 8,9-dimethyl-7-(3-(pyridin-3-yl)-7,8-dihydro-1,6-naphthyridin-6(5H)-yl)-4H-pyrimido[1,2-b]pyridazin-4-one] | 89% | 344 nM |
| [2H]C1([2H])Cc2ncc(Nc3ccncc3F)cc2C([2H])([2H])N1c1nn2c(=O)ccnc2cc1C [Compound 2-164, 7-(3-((3-fluoropyridin-4-yl)amino)-7,8-dihydro-1,6-naphthyridin-6(5H)-yl-5,5,7,7-d4)-8-methyl-4H-pyrimido[1,2-b]pyridazin-4-one] | 94% | 7 nM |
| Cc1cc(=O)n2nc(N3CCc4ncc(-c5cc(F)ccc5C)cc4C3)c(C)cc2n1 [Compound 1-210, 7-(3-(5-fluoro-2-methylphenyl)-7,8-dihydro-1,6-naphthyridin-6(5H)-yl)-2,8-dimethyl-4H-pyrimido[1,2-b]pyridazin-4-one] | 84% | 287 nM |
| Cc1cc2nc(C)c(C)c(=O)n2nc1N1CCc2ncc(C(F)(F)F)cc2C1 [Compound 1-25, 2,3,8-trimethyl-7-(3-(trifluoromethyl)-7,8-dihydro-1,6-naphthyridin-6(5H)-yl)-4H-pyrimido[1,2-b]pyridazin-4-one] | 81% | 254 nM |
| Cc1cc(=O)n2nc(N3CCc4ncc(Nc5cccnc5F)cc4C3)c(C)cc2n1 [Compound 2-19, 7-(3-((2-fluoropyridin-3-yl)amino)-7,8-dihydro-1,6-naphthyridin-6(5H)-yl)-2,8-dimethyl-4H-pyrimido[1,2-b]pyridazin-4-one] | 79% | 60 nM |
| Cc1c(N2CCc3ncc(-c4ccnnc4)cc3C2)nn2c(=O)cc(C(F)F)nc2c1C [Compound 1-158, 2-(difluoromethyl)-8,9-dimethyl-7-(3-(pyridazin-4-yl)-7,8-dihydro-1,6-naphthyridin-6(5H)-yl)-4H-pyrimido[1,2-b]pyridazin-4-one] | 94% | 251 nM |
| Cc1cc2nc(C)c(F)c(=O)n2nc1N1CCc2ncc(C(F)(F)F)cc2C1 [Compound 1-15, 3-fluoro-2,8-dimethyl-7-(3-(trifluoromethyl)-7,8-dihydro-1,6-naphthyridin-6(5H)-yl)-4H-pyrimido[1,2-b]pyridazin-4-one] | 73% | 136 nM |
| Cc1cc2nccc(=O)n2nc1N1CCc2ncc(Nc3ccnc(C)c3F)cc2C1 [Compound 2-153, 7-(3-((3-fluoro-2-methylpyridin-4-yl)amino)-7,8-dihydro-1,6-naphthyridin-6(5H)-yl)-8-methyl-4H-pyrimido[1,2-b]pyridazin-4-one] | 83% | 27 nM |
| Cc1cc(=O)n2nc(N3CCc4ncc(-c5cc(F)ncc5C)cc4C3)c(C)cc2n1 [Compound 1-238, 7-(3-(2-fluoro-5-methylpyridin-4-yl)-7,8-dihydro-1,6-naphthyridin-6(5H)-yl)-2,8-dimethyl-4H-pyrimido[1,2-b]pyridazin-4-one] | 92% | 711 nM |
| Cc1cc2nc(C(=O)NCc3cncs3)cc(=O)n2nc1N1CCc2ncc(C(F)(F)F)cc2C1 [Compound 1-42, 8-methyl-4-oxo-N-(thiazol-5-ylmethyl)-7-(3-(trifluoromethyl)-7,8-dihydro-1,6-naphthyridin-6(5H)-yl)-4H-pyrimido[1,2-b]pyridazine-2-carboxamide] | 87% | 200 nM |
| Cc1cc(=O)n2nc(N3CCc4ncc(-c5cnc(Cl)cc5C)cc4C3)c(C)c(C)c2n1 [Compound 1-197, 7-(3-(6-chloro-4-methylpyridin-3-yl)-7,8-dihydro-1,6-naphthyridin-6(5H)-yl)-2,8,9-trimethyl-4H-pyrimido[1,2-b]pyridazin-4-one] | 81% | 275 nM |
| Cc1cc2ncc(Cl)c(=O)n2nc1N1CCc2ncc(C3CC3)cc2C1 [Compound 1-9, 3-chloro-7-(3-cyclopropyl-7,8-dihydro-1,6-naphthyridin-6(5H)-yl)-8-methyl-4H-pyrimido[1,2-b]pyridazin-4-one] | 75% | 25 nM |
| Cc1cc2nccc(=O)n2nc1N1CCc2ncc(Nc3ccc(F)nc3C)cc2C1 [Compound 2-143, 7-(3-((6-fluoro-2-methylpyridin-3-yl)amino)-7,8-dihydro-1,6-naphthyridin-6(5H)-yl)-8-methyl-4H-pyrimido[1,2-b]pyridazin-4-one] | 82% | 469 nM |
| Cc1cc2nc(C)c(F)c(=O)n2nc1N1CCc2ncc(N3CCCn4nccc43)cc2C1 [Compound 2-9, 7-(3-(6,7-dihydropyrazolo[1,5-a]pyrimidin-4(5H)-yl)-7,8-dihydro-1,6-naphthyridin-6(5H)-yl)-3-fluoro-2,8-dimethyl-4H-pyrimido[1,2-b]pyridazin-4-one] | 84% | 17 nM |
| Cc1cc(C(=O)O)ncc1-c1cnc2c(c1)CN(c1nn3c(=O)ccnc3cc1C)CC2 [Compound 1-406, 4-methyl-5-(6-(8-methyl-4-oxo-4H-pyrimido[1,2-b]pyridazin-7-yl)-5,6,7,8-tetrahydro-1,6-naphthyridin-3-yl)picolinic acid] | 86% | 3970 nM |
| COCc1cc(=O)n2nc(N3CCc4ncc(-c5cnc(F)cc5C)cc4C3)c(C)c(C)c2n1 [Compound 1-229, 7-(3-(6-fluoro-4-methylpyridin-3-yl)-7,8-dihydro-1,6-naphthyridin-6(5H)-yl)-2-(methoxymethyl)-8,9-dimethyl-4H-pyrimido[1,2-b]pyridazin-4-one] | 90% | 48 nM |
| COCc1cc(=O)n2nc(N3CCc4ncc(-c5ccc(CO)s5)cc4C3)c(C)cc2n1 [Compound 1-369, 7-(3-(5-(hydroxymethyl)thiophen-2-yl)-7,8-dihydro-1,6-naphthyridin-6(5H)-yl)-2-(methoxymethyl)-8-methyl-4H-pyrimido[1,2-b] pyridazin-4-one] | 99% | 46 nM |
| COCc1cc(=O)n2nc(N3CCc4ncc(-c5ccc(F)nc5)cc4C3)c(C)cc2n1 [Compound 1-322, 7-(3-(6-fluoropyridin-3-yl)-7,8-dihydro-1,6-naphthyridin-6(5H)-yl)-2-(methoxymethyl)-8-methyl-4H-pyrimido[1,2-b] pyridazin-4-one] | 82% | 374 nM |
